Data on five compounds can be found in ChEMBL document CHEMBL3868619, “Synthesis and biological assessment of novel N-(hydroxy/methoxy)alkyl β-enaminone curcuminoids” (Bioorg Med Chem Lett, 2016).

In brackets after ≈: the same amount, converted by molar mass.

Usually EC50 stands for the midpoint of the concentration-response curve. Broadly, the thermodynamic solubility is solubility found after equilibrating the solid with the medium. As usually defined, the IC50 is the concentration that inhibits the measured activity by half.

Series [1] deals with HepG2. Put plainly: Induction of ROS generation in human HepG2 cells at 10 uM using DCFH-DA by fluorescence assay relative to control. Type of series: functional.
A short description of series [2]: Antioxidant activity assessed as DPPH radical scavenging activity after 30 mins by spectrophotometric analysis. Type of series: functional. (Loss of DPPH colour is used to gauge radical scavenging.)
Series [3] can be described thus: Aqueous solubility of the compound in sodium phosphate buffer at pH 6.8 after 24 hrs by shake flask method. It is filed as physicochemical.
For series [4], the system named is HT-29. Put plainly: Induction of ROS generation in human HT-29 cells at 10 uM using DCFH-DA by fluorescence assay relative to control. It is filed as functional.
The nature of series [5]: Induction of ROS generation in CHOK1 cells at 1 uM using DCFH-DA by fluorescence assay relative to control. It is filed as cell-based, Cricetulus griseus. The settings on record: chinese hamster, cho-k1, 1 µM.
For series [6], the system named is HT-29. Put plainly: Induction of ROS generation in human HT-29 cells at 1 uM using DCFH-DA by fluorescence assay relative to control. It is filed as functional.
In series [7] the test system is Caco-2. Description: Induction of ROS generation in human Caco2 cells at 1 uM using DCFH-DA by fluorescence assay relative to control. Type of series: functional.
Series [8] is described as follows: Chemical stability of the compound sodium phosphate buffer at pH 6.8 after 24 hrs by LC-MS analysis. To be noted: pH 6.8, 24 h. It is filed as physicochemical.
Series [9] in a line: Cytotoxicity against human EAhy926 cells assessed as decrease in cell viability after 48 hrs by MTT assay. Type of series: toxicity, cell-based, EA.hy 926. To be noted: EA.hy926 cells. For orientation: Tetrazolium dyes change colour on reduction, which living cells bring about.
Series [10] relates to Caco-2. Put plainly: Induction of ROS generation in human Caco2 cells at 10 uM using DCFH-DA by fluorescence assay relative to control. It is filed as functional.
The subject of series [11] is EA.hy 926. Put plainly: Induction of ROS generation in human EAhy926 cells at 1 uM using DCFH-DA by fluorescence assay relative to control. Type of series: functional.
The test system of series [12] is EA.hy 926. Put plainly: Induction of ROS generation in human EAhy926 cells at 10 uM using DCFH-DA by fluorescence assay relative to control. Type of series: functional.
Series [13] in a line: Cytotoxicity against human Caco2 cells assessed as decrease in cell viability after 48 hrs by MTT assay. It is filed as functional, cell-based. To be noted: Caco-2, 48 h.
A short description of series [14]: Aqueous solubility of the compound in sodium phosphate buffer at pH 6.8 after 90 mins by shake flask method. Type of series: physicochemical.
Series [15] in a line: Induction of ROS generation in CHOK1 cells at 10 uM using DCFH-DA by fluorescence assay relative to control. To be noted: chinese hamster, cho-k1, 10 µM. Type of series: cell-based, Cricetulus griseus.
A short description of series [16]: Cytotoxicity against human HepG2 cells assessed as decrease in cell viability after 48 hrs by MTT assay. To be noted: HepG2, 48 h. It is filed as functional, cell-based.
Series [17] is described as follows: Cytotoxicity against CHOK1 cells assessed as decrease in cell viability after 48 hrs by MTT assay. Type of series: toxicity, cell-based, Cricetulus griseus. The settings on record: Chinese hamster, CHO-K1 cells.
Series [18] relates to HepG2. Put plainly: Induction of ROS generation in human HepG2 cells at 1 uM using DCFH-DA by fluorescence assay relative to control. It is filed as functional.
Series [19] can be described thus: Cytotoxicity against human HT-29 cells assessed as decrease in cell viability after 48 hrs by MTT assay. It is filed as functional, cell-based. To be noted: HT-29, 48 h.

In the case of `O=C1C=C(/C=C/c2ccc(O)cc2)N(CCO)C(c2ccc(O)cc2)C1` (configuration not stated), the Activity is given as 100.1% in the series on HepG2 [1]; 98.8% with HT-29 [4]; 99.4% in series [5]; 100.8% with HT-29 [6]; 95.3% in the series with Caco-2 [7]; 91.5% with Caco-2 [10]. The Activity with EA.hy 926 [11] worked out at 106.9%; with EA.hy 926 [12], 101.4%; in series [15] it was 87.6%; in the series with HepG2 [18], 105.4%. Further, the EC50 in [2] was determined as 49.4 µM. The compound further had a solubility (thermodynamic) at 24 h in [3] of 29.9 µM (≈ 10.5 µg/mL). For the same compound, the Stability result in [8] is “Stable”. Besides, the IC50 at 48 h in series [9] and in series [17] was > 100 µM each time. Moreover, the IC50 in series [13], in series [16] and in [19] was > 100 µM each time. Also, in series [14], the solubility (thermodynamic) at 1.5 h was 29.2 µM (≈ 10.3 µg/mL).

On to `O=C(/C=C/c1ccc(O)cc1)CC(=O)/C=C/c1ccc(O)cc1` [BISDEMETHOXYCURCUMIN], for which the Activity in the series on HepG2 [1] was found to be 69.4%; in the series with HT-29 [4], 95.4%; in [5], 104.6%; with HT-29 [6], 101.1%; in the series with Caco-2 [7] it was 100.1%; in the series with Caco-2 [10], 88.8%. Also, the Activity is given as 95.8% in the series with EA.hy 926 [11], 104.6% in the series on EA.hy 926 [12], 107.9% in [15] and 88.8% in the series with HepG2 [18]. The EC50 in series [2] was > 200 µM. Also, the thermodynamic solubility at 24 h in [3] was found to be 4.3 µM (≈ 1.33 µg/mL). In addition, in [8], the Stability result is listed as “Stable”. In addition, the figures for the IC50 at 48 h in series [9] and in [17] were 54.3 µM and 91.4 µM, respectively. In addition, the IC50 in series [13], in [16] and in [19] was > 100 µM each time. Besides, the solubility (thermodynamic) at 1.5 h in series [14] came to 3.18 µM (≈ 0.98 µg/mL).

Take `COCCCN1C(/C=C/c2ccc(O)cc2)=CC(=O)CC1c1ccc(O)cc1` (configuration not stated): the Activity is on record as 96.2% in the series with HepG2 [1]; 74.7% in the series on HT-29 [4]; 97.8% in [5]; 90.5% in the series on HT-29 [6]; 99% in the series on Caco-2 [7]; 99.4% in the series on Caco-2 [10]. Also, the Activity stood at 116.4% in the series on EA.hy 926 [11], 118.6% in the series on EA.hy 926 [12], 91.7% in series [15] and 93.2% with HepG2 [18]. Besides, the EC50 in series [2] is > 200 µM. In series [3], this compound gave a thermodynamic solubility at 24 h of 38.8 µM (≈ 14.7 µg/mL). For the same compound, in series [8], the Stability result was “Stable”. Moreover, the IC50 at 48 h in series [9] and in series [17] was > 100 µM in each case. In addition, the IC50 in series [13], in [16] and in series [19] was > 100 µM each time. In [14], this compound yielded a solubility (thermodynamic) at 1.5 h of 25.8 µM (≈ 9.8 µg/mL).

On to `COc1cc(/C=C/C(=O)CC(=O)/C=C/c2ccc(O)c(OC)c2)ccc1O` [CURCUMIN], for which the Activity with HepG2 [1] is on record as 99.1%; in the series on HT-29 [4], 87.3%; in [5] it was 103.9%; in the series with HT-29 [6], 97.3%; with Caco-2 [7], 89.1%; with Caco-2 [10], 94.8%. Moreover, the Activity in the series on EA.hy 926 [11] amounted to 105.5%; in the series with EA.hy 926 [12] it was 98.8%; in series [15], 101%; in the series on HepG2 [18], 93.7%. In addition, the half-maximal effective concentration (EC50) in [2] was 31.5 µM. The thermodynamic solubility at 24 h in series [3] turned out to be 1.25 µM (≈ 0.46 µg/mL). Besides, the Stability entry in series [8] is “Stable”. The IC50 at 48 h in [9] was determined as 24.6 µM; in series [17], 42 µM. In addition, the IC50 in series [13] was 38.3 µM; in series [16] it was 72.7 µM; in series [19], 51.7 µM. The compound further showed a thermodynamic solubility at 1.5 h in [14] of 1.51 µM (≈ 0.556 µg/mL).

For the compound `Cc1c(C)c2c(c(C)c1O)CCC(C)(C(=O)O)O2` (configuration not stated) [TROLOX], in series [2], the EC50 was 29.6 µM.
